Experimental data: ChEMBL document CHEMBL4507276 (2021)

Assays:
[1] = biological target: Serine/threonine-protein kinase 25 (Homo sapiens) (UniProt O00506); conditions: Compound concentration 1000.0 nM
[2] = system: Mast/stem cell growth factor receptor Kit (Homo sapiens), P10721 [V559D,V654A]; conditions: Compound concentration 1000.0 nM
[3] = biological target: T1, cGMP-dependent protein kinase 1 (Homo sapiens) (UniProt Q13976); conditions: Compound concentration 1000.0 nM
T1 sequence (whole entry): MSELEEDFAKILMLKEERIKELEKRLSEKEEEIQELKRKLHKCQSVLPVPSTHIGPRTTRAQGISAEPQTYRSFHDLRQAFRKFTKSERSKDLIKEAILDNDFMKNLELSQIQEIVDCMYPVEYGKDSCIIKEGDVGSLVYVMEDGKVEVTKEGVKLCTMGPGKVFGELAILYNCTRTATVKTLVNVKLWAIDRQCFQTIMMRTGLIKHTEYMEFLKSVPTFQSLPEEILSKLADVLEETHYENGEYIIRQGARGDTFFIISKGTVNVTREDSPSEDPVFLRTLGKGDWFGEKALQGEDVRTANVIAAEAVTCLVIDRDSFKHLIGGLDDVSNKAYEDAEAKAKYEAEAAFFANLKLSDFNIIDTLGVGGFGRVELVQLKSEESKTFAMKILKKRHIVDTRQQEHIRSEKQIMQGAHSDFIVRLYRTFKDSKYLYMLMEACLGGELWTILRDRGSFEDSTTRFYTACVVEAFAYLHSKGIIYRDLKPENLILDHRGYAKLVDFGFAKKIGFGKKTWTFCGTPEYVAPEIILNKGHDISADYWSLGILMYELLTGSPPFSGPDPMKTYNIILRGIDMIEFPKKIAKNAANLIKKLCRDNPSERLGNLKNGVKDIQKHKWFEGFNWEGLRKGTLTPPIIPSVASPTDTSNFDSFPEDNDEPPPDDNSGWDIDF

[4] = biological target: T2, Tyrosine-protein kinase TXK (Homo sapiens) (UniProt P42681); conditions: Compound concentration 1000.0 nM
T2 sequence (whole entry): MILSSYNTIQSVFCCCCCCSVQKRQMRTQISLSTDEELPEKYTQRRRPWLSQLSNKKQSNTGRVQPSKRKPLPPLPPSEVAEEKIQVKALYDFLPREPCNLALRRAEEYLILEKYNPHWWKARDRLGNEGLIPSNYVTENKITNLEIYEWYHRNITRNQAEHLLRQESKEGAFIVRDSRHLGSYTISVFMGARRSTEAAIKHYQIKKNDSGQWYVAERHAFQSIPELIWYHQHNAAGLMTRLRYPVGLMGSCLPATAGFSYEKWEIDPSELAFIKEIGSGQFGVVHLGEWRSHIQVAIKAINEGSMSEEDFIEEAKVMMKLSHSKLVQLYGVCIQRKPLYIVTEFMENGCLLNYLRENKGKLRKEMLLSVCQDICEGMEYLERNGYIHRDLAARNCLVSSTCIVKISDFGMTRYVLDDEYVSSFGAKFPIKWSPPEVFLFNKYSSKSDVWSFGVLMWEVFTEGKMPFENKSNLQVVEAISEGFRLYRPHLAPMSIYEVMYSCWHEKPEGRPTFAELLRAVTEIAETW

[5] = biological target: 5-hydroxytryptamine receptor 5A (Homo sapiens) (UniProt P47898); conditions: Compound concentration 10.0 uM
[6] = biological target: Serine/threonine-protein kinase MRCK gamma (Homo sapiens) (UniProt Q6DT37); conditions: Compound concentration 1000.0 nM
[7] = system: eIF-2-alpha kinase GCN2 (Homo sapiens), Q9P2K8 [S808G]; conditions: Compound concentration 1000.0 nM
Chain of eIF-2-alpha kinase GCN2 (Homo sapiens), Q9P2K8 [S808G] (Q9P2K8 whole entry S808G): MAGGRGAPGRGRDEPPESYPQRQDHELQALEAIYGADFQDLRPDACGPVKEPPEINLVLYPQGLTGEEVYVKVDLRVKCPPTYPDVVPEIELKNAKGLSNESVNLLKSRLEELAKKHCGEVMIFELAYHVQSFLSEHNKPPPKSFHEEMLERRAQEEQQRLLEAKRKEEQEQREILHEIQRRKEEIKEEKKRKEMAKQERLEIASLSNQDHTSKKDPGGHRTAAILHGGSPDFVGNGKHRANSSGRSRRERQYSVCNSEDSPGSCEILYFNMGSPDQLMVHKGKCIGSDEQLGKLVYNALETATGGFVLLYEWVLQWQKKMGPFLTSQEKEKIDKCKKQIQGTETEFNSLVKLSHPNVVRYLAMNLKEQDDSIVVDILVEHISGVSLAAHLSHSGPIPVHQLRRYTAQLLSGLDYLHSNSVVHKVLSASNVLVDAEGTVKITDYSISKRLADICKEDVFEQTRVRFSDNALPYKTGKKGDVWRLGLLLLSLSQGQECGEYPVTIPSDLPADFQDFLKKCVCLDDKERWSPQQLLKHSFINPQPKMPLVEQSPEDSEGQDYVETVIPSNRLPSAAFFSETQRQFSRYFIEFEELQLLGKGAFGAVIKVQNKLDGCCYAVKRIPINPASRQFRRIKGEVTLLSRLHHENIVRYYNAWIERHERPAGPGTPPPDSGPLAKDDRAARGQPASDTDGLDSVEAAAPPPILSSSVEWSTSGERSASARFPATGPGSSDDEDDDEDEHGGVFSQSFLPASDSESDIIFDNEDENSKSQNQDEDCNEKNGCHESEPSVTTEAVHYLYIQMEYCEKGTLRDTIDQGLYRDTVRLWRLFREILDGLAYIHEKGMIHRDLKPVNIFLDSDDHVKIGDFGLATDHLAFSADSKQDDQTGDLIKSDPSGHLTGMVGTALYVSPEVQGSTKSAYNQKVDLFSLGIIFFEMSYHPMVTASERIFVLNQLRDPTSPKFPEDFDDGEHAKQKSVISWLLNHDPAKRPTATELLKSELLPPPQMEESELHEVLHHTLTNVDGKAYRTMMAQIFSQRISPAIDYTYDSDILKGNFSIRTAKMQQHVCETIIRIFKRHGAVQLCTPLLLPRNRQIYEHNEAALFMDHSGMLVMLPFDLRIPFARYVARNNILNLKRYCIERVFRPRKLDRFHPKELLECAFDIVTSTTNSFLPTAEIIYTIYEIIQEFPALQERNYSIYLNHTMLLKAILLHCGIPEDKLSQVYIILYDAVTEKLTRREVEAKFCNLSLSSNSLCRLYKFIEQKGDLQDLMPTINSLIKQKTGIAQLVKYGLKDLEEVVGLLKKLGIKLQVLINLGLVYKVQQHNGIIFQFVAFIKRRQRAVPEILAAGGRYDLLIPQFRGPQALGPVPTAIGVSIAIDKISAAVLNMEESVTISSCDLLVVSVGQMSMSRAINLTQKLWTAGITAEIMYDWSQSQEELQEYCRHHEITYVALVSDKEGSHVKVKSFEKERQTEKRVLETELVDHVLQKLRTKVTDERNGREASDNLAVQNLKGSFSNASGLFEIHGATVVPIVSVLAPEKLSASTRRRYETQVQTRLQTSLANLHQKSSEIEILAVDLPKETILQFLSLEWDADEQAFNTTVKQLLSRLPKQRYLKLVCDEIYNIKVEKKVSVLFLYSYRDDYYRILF

[8] = biological target: Dual specificity mitogen-activated protein kinase kinase 5 (Homo sapiens) (UniProt Q13163); conditions: Compound concentration 1000.0 nM
[9] = system: Mast/stem cell growth factor receptor Kit (Homo sapiens), P10721 [V559D]; conditions: Compound concentration 1000.0 nM
[10] = biological target: Citron Rho-interacting kinase (Homo sapiens) (UniProt O14578); conditions: Compound concentration 1000.0 nM
Chain of Citron Rho-interacting kinase (Homo sapiens) (O14578 whole entry): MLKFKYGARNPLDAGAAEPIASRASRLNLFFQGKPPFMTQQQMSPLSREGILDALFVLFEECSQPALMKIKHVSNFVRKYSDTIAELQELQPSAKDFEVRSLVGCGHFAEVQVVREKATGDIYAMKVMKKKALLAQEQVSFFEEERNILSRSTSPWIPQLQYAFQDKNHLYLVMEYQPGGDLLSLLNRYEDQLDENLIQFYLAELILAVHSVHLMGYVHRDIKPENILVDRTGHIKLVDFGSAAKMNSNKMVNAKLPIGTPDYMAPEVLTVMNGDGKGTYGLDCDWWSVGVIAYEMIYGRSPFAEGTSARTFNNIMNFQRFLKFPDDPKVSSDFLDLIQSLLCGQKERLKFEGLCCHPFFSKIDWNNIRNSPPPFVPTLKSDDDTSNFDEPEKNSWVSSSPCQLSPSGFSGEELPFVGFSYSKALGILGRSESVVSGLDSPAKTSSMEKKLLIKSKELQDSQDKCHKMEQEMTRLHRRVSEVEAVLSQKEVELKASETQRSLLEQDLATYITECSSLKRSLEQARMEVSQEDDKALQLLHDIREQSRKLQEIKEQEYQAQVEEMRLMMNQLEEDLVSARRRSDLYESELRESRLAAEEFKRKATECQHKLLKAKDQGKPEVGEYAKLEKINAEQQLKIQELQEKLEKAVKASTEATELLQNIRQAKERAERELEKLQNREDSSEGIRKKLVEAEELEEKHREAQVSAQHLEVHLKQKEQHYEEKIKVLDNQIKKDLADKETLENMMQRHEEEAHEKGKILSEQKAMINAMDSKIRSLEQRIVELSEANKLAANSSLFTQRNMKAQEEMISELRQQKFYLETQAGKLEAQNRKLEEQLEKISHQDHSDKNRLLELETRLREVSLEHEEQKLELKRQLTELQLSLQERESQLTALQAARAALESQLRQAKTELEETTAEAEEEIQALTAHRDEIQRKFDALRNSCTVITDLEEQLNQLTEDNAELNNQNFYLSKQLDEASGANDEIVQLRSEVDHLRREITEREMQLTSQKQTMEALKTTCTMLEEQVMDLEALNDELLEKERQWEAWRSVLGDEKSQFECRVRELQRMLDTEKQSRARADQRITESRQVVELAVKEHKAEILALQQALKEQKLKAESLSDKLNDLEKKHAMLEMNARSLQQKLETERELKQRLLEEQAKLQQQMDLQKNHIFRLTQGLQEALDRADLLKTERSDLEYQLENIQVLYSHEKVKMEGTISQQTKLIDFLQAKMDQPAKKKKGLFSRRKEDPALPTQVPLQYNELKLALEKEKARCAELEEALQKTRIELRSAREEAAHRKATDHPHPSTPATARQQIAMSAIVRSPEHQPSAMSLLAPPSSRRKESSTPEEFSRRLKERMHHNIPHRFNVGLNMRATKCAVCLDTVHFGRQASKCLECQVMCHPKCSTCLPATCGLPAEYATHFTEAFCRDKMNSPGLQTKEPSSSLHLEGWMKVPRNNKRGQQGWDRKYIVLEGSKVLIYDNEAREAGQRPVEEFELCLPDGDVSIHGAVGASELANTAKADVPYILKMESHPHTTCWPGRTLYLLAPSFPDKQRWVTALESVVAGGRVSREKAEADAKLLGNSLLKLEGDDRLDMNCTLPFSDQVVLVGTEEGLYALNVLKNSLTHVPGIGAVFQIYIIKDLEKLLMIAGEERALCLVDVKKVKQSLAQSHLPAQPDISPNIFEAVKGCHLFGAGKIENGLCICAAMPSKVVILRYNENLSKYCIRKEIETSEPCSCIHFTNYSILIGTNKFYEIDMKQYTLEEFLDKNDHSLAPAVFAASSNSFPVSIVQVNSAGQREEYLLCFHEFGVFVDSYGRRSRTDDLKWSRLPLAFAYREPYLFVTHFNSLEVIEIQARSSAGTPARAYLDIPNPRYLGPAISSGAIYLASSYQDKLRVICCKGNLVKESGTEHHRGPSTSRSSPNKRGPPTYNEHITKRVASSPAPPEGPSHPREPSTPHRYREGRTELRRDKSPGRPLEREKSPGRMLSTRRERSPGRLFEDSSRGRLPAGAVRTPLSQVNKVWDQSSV

[11] = biological target: Serine/threonine-protein kinase Nek11 (Homo sapiens) (UniProt Q8NG66); conditions: Compound concentration 1000.0 nM
[12] = biological target: T3, Serine/threonine-protein kinase Chk1 (Homo sapiens) (UniProt O14757); conditions: Compound concentration 1000.0 nM
T3 sequence (whole entry): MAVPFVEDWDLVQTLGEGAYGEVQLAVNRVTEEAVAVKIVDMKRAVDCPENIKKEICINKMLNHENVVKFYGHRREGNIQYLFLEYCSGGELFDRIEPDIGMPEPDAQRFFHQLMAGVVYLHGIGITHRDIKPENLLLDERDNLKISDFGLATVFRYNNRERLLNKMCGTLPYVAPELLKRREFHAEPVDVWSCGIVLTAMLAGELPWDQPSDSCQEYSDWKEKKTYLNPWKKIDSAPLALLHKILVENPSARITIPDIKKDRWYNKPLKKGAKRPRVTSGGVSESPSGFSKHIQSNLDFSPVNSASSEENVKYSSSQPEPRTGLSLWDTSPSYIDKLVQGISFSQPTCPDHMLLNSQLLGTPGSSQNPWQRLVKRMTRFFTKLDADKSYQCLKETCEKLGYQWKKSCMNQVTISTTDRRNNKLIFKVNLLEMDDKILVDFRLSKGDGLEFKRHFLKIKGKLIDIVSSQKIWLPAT

[13] = biological target: T4, Serine/threonine-protein kinase Nek2 (Homo sapiens) (UniProt P51955); conditions: Compound concentration 1000.0 nM
T4 sequence (whole entry): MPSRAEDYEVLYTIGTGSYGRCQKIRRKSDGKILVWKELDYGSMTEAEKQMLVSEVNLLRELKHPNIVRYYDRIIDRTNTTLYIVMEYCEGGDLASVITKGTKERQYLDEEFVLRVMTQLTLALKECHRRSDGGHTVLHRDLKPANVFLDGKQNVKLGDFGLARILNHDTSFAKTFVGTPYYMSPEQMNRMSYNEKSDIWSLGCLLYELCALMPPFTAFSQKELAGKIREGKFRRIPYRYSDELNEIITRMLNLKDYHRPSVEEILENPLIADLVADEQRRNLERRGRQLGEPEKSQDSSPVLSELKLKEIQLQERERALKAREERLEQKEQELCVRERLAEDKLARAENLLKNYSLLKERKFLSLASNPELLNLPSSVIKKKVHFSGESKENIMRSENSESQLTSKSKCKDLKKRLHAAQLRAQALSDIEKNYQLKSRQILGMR

[14] = biological target: Tyrosine-protein kinase receptor Tie-1 (Homo sapiens) (UniProt P35590); conditions: Compound concentration 1000.0 nM
[15] = biological target: Insulin receptor (Homo sapiens) (UniProt P06213); conditions: Compound concentration 1000.0 nM
Chain of Insulin receptor (Homo sapiens) (P06213 28-758 limits assumed): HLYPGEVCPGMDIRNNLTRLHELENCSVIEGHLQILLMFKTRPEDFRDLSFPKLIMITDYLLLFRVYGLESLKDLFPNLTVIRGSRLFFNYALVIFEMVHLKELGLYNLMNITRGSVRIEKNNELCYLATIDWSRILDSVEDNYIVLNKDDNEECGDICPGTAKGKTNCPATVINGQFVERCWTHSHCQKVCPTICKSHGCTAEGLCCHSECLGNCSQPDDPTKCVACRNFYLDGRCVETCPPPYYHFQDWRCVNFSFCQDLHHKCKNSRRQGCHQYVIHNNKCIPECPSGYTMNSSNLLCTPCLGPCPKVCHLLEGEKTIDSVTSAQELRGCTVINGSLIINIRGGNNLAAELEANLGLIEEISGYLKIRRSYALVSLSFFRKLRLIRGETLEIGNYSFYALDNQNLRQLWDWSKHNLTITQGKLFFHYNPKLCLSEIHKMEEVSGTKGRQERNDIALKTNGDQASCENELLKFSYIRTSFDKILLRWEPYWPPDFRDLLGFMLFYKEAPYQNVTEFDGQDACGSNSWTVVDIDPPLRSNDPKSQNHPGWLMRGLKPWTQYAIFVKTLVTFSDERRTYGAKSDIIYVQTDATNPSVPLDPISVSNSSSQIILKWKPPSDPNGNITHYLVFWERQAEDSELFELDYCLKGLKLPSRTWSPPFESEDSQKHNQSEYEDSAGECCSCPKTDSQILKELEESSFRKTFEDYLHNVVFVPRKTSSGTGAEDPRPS
Chain of Insulin receptor (Homo sapiens) (P06213 763-1382 limits assumed): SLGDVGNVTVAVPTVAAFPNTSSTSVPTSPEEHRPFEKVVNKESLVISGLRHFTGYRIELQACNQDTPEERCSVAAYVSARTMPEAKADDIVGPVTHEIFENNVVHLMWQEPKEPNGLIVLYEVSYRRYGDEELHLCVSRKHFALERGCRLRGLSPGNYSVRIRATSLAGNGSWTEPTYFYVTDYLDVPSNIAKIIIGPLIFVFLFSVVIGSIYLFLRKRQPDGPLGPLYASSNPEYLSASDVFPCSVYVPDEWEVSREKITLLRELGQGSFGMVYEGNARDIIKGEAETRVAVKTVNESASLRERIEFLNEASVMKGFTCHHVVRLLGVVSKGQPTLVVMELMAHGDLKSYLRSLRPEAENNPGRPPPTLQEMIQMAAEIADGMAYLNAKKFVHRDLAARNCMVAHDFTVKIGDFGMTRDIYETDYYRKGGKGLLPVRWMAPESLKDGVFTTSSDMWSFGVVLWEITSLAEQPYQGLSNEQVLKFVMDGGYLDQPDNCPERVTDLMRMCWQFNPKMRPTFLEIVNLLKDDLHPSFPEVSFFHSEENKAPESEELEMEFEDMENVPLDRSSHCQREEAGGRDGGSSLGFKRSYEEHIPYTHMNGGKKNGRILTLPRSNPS

[16] = biological target: Mitogen-activated protein kinase kinase kinase 10 (Homo sapiens) (UniProt Q02779); conditions: Compound concentration 1000.0 nM

CN(C)C(=O)Cn1cc(-c2nc(C3(c4ccc(-c5cnc(N)nc5)cc4)CC3)no2)cn1 [BI 0153]
inactive: residual activity [1] 100% | residual activity [2] 100% | residual activity [3] 89% | residual activity [4] 98% | inhibition [5] 0.23% | residual activity [6] 82% | residual activity [7] 83% | residual activity [8] 72% | residual activity [9] 100% | residual activity [10] 86% | residual activity [11] 90% | residual activity [12] 100% | residual activity [13] 100% | residual activity [14] 98% | residual activity [15] 90% | residual activity [16] 62%

CN(C)C(=O)Cn1cc(-c2nc([C@@](C)(c3ccc(-c4cnc(N)nc4)cc3)C3CC3)no2)cn1 [BI 665915]
inactive: residual activity [1] 100% | residual activity [2] 93% | residual activity [3] 100% | residual activity [4] 96% | inhibition [5] -4.97% | residual activity [6] 87% | residual activity [7] 100% | residual activity [8] 62% | residual activity [9] 91% | residual activity [10] 84% | residual activity [11] 100% | residual activity [12] 85% | residual activity [13] 97% | residual activity [14] 90% | residual activity [15] 89% | residual activity [16] 83%
